Measured values: patent US12157730B2, “Heteroaryl derivative, method for producing same, and pharmaceutical composition comprising same as effective component” (VORONOI INC., priority 2019, dated 2024)

Legend:
Ba/F3 cell EGFR L858R = biological target: T1, Ba/F3 cell EGFR L858R (Homo sapiens, UniProt P00533, L858R); test: Ba/F3 cell proliferation suppression, EGFR L858R; type: cell-based; conditions: 72 hours after treatment, CellTiter-Glo
T1 construct: expressed in transfected cells; host or cells: Ba/F3
Summary of the method: (§1)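 Seed 3000–5000 cells/well; after 24 h add compound (12 conc., 0.3 nM–50 um final); incubate 72 h; add CellTiter-Glo, 10 min room temperature; read luminescence; GI50 from % growth vs control, triplicate.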

[1] = biological target: T2, Ba/F3 cell EGFR Exon20 ins FQEA (Homo sapiens, UniProt P00533, INS763FQEA); test: Ba/F3 cell proliferation suppression, EGFR Exon20 ins FQEA; type: cell-based; conditions: 72 hours after treatment, CellTiter-Glo
T2 construct: expressed in transfected cells; host or cells: Ba/F3
Summary of the method: as §1

[2] = tested on: scanMAX kinase panel (EGFR mutant, ERBB2, ERBB4); test: DiscoverX (eurofin) KINOMEscan (scanMAX platform) kinase profiling; type: binding; conditions: for suppression activity against the EGFR mutant and ERBB2 and ERBB4: KINOMEscan scanMAX kinase profiling
Source text: It was confirmed that the above example compounds had high selectivity against EGFR series genes. Accordingly, these can be useful in the treating of cancers wherein this kinase is expressed. In particular, as they have substantially outstanding lung cancer cell line proliferation suppression, they can be useful in the treatment of lung cancer, breast cancer, and brain cancer.

[3] = biological target: T3, Ba/F3 cell EGFR Exon20 ins NPH (Homo sapiens, UniProt P00533, INS773NPH); test: Ba/F3 cell proliferation suppression, EGFR Exon20 ins NPH; type: cell-based; conditions: for GI50: 72 hours after treatment, CellTiter-Glo; for Ba/F3 (NPH) Activity: GI50 class, Ba/F3 cell line with NPH inserted at Exon20 of EGFR, 72 hours
T3 construct: expressed in transfected cells; host or cells: Ba/F3
Summary of the method: as §1

[4] = tested on: Ba/F3 cell EGFR Exon20 ins H; test: Ba/F3 cell proliferation suppression, EGFR Exon20 ins H; type: cell-based; conditions: 72 hours after treatment, CellTiter-Glo
Procedure: (§2) The following experiment was carried out to evaluate the suppression activity of the compounds according to the present invention against proliferation of Ba/F3 and lung cancer cells which express EGFR mutations.
(§3) Of the cancer cell lines expressing the EGFR gene, A549 was cultured after adding 10% FBS (HyClone) to DMEM (Invitrogen), and RPMI-1640 (Invitrogen) with 10% FBS was used for the other cancer cells. For the Ba/F3 cells, RPMI-1640 with 10% FBS and 5 ng/ml IL-3 (R&D Systems) was used. The transduced Ba/F3 cells were cultured by adding 1 ug/ml puromycin (Invitrogen) to the same medium.
(§4) 24 hours before treatment with the compounds, 3000 to 5000 cells were distributed into each well of a white clear bottom 96 well plate (Corning). The compounds were diluted in dimethylsulfoxide (dilution ratio 3:1; 12 concentrations total) and injected 0.5 ul each for a final concentration of 0.3 nM to 50 um. As for measurement of live cells, 72 hours after treatment with the compounds, a CellTiter-Glo luminescent cell-viability reagent (Promega) was used to store the cells at room temperature for 10 minutes, followed by measurement of luminescence using a reader (SynergyNeo, Biotek). Each test was repeated three times.
(§5) The result was calculated as a cell growth ratio (%) compared to a control. The program GraphPad Prism version 5.0 was used to draw the graphs and calculate the GI50 values.

[5] = tested on: Ba/F3 cell EGFR Del19/T790M; test: Ba/F3 cell proliferation suppression, EGFR Del19/T790M; type: cell-based; conditions: 72 hours after treatment, CellTiter-Glo
Summary of the method: as §1

Ba/F3 cell naive = test: Ba/F3 cell proliferation suppression, naive; type: cell-based; conditions: Mus musculus, BaF3; 72 hours after treatment, CellTiter-Glo
Summary of the method: as §1

[6] = biological target: T4, Ba/F3 cell EGFR Exon20 ins SVD (Homo sapiens, UniProt P00533, INS770SVD); test: Ba/F3 cell proliferation suppression, EGFR Exon20 ins SVD; type: cell-based; conditions: 72 hours after treatment, CellTiter-Glo
T4 construct: expressed in transfected cells; host or cells: Ba/F3
Summary of the method: as §1

PC9GR = test: Lung cancer cell proliferation suppression, PC9GR; type: cell-based; conditions: 72 hours after treatment, CellTiter-Glo
Summary of the method: as §1

[7] = biological target: T5, Ba/F3 cell HER2 Exon20 ins YVMA (Homo sapiens, UniProt P04626, INS775YVMA); test: Ba/F3 cell proliferation suppression, HER2 Exon20 ins YVMA; type: cell-based; conditions: 72 hours after treatment, CellTiter-Glo
T5 construct: expressed in transfected cells; host or cells: Ba/F3
T5 sequence (P04626 with tags, fused parts or gaps INS775YVMA): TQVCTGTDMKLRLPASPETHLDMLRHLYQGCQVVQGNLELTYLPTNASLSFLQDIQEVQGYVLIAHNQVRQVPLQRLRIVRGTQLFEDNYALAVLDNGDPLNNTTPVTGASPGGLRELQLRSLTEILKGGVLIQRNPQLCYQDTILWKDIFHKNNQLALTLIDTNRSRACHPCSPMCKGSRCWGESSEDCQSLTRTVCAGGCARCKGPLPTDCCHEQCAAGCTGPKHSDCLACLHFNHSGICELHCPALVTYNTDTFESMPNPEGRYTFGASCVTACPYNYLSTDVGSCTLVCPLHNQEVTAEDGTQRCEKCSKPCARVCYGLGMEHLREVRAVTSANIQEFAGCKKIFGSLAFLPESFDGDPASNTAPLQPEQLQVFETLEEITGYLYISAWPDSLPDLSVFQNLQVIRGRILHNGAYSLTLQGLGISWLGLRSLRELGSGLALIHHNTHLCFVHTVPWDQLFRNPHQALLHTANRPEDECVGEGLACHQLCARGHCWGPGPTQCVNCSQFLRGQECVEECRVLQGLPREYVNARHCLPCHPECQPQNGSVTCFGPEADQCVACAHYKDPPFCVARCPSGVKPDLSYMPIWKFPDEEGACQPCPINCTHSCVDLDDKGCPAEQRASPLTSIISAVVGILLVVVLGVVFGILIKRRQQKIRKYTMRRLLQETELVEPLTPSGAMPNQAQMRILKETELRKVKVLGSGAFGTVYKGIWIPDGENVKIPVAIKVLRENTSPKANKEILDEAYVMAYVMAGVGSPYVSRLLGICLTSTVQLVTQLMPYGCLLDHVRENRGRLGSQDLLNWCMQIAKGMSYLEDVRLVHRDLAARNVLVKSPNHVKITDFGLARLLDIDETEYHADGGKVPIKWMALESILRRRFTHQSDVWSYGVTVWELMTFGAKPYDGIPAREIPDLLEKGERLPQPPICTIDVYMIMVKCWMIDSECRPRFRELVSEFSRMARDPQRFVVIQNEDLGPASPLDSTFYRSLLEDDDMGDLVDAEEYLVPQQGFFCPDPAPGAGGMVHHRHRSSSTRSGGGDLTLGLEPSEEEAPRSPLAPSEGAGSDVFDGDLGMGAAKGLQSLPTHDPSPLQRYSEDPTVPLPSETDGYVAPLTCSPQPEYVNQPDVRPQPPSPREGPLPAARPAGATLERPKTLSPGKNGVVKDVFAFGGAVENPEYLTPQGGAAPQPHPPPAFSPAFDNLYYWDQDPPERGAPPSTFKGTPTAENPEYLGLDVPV
Summary of the method: as §1

PC9 = test: Lung cancer cell proliferation suppression, PC9; type: cell-based; conditions: Homo sapiens, PC-9; 72 hours after treatment, CellTiter-Glo
Summary of the method: as §1

[8] = Cancer cell proliferation suppression, A549; type: cell-based; conditions: A459; 72 hours after treatment, CellTiter-Glo
Procedure: as §2, §3, §4, §5

[9] = biological target: T6, Ba/F3 cell EGFR Exon20 ins ASV (Homo sapiens, UniProt P00533, INS769ASV); test: Ba/F3 cell proliferation suppression, EGFR Exon20 ins ASV; type: cell-based; conditions: 72 hours after treatment, CellTiter-Glo
T6 construct: expressed in transfected cells; host or cells: Ba/F3
Summary of the method: as §1

[10] = biological target: T7, Ba/F3 cell EGFR L858R/T790M (Homo sapiens, UniProt P00533, L858R/T790M); test: Ba/F3 cell proliferation suppression, EGFR L858R/T790M; type: cell-based; conditions: 72 hours after treatment, CellTiter-Glo
T7 construct: expressed in transfected cells; host or cells: Ba/F3
Summary of the method: as §1

H1975 = test: Lung cancer cell proliferation suppression, H1975; type: cell-based; conditions: Homo sapiens, NCI-H1975; 72 hours after treatment, CellTiter-Glo
Summary of the method: as §1

Row | GI50 (Ba/F3 cell EGFR L858R) | GI50 [1] | % inhibition of scanMAX Kinase profiling ([2]; EGFR(E746-A750del)) | % inhibition of scanMAX Kinase profiling ([2]; EGFR(G719C)) | % inhibition of scanMAX Kinase profiling ([2]; EGFR(G719S)) | % inhibition of scanMAX Kinase profiling ([2]; EGFR(L747-E749del, A750P)) | % inhibition of scanMAX Kinase profiling ([2]; EGFR(L747-T751del.Sins)) | % inhibition of scanMAX Kinase profiling ([2]; EGFR(L858R)) | % inhibition of scanMAX Kinase profiling ([2]; EGFR(L858R.T790M)) | % inhibition of scanMAX Kinase profiling ([2]; EGFR(L861q)) | % inhibition of scanMAX Kinase profiling ([2]; EGFR(S752-I759del)) | % inhibition of scanMAX Kinase profiling ([2]; EGFR(T790M)) | % inhibition of scanMAX Kinase profiling ([2]; ERBB2) | % inhibition of scanMAX Kinase profiling ([2]; ERBB4) | suppression activity against the EGFR mutant and ERBB2 and ERBB4 [2] | GI50 [3] | Ba/F3 (NPH) Activity [3] | GI50 [4] | GI50 [5] | GI50 (Ba/F3 cell naive) | SMILES | further results
1 | < 0.05 µM | < 0.05 µM | 100% | 100% | 100% | 97% | 100% | 100% | 96% | 100% | 100% | 99% | 100% | 100% | high suppression activity | < 0.05 µM | A (GI50 < 50 nM) | < 0.05 µM | < 0.05 µM | ≥ 5 µM | C=CC(=O)Nc1cc(Nc2cc(N3OCC[C@@H]3c3ccccc3)ncn2)c(OC)cc1N(C)CCN(C)C [Example 4] | GI50 [6]: < 0.05 µM; GI50 (PC9GR): 20 nM; GI50 [7]: < 0.05 µM; GI50 (PC9): 1 nM; GI50 [8]: > 15000 nM; GI50 [9]: < 0.05 µM; GI50 [10]: < 0.05 µM; GI50 (H1975): 28 nM
2 | < 0.05 µM | < 0.05 µM | 100% | 100% | 100% | 100% | 100% | 100% | 85% | 100% | 96% | 100% | 100% | 100% | high suppression activity | < 0.05 µM | A (GI50 < 50 nM) | < 0.05 µM | < 0.05 µM | ≥ 5 µM | C=CC(=O)Nc1cc(Nc2cc(N3OCC[C@@H]3c3ccccc3)ncn2)c(OC)cc1N1CCN(C)CC1 [Example 6, N-(4-methoxy-2-(4-methylpiperazine-1-yl)-5-((6-((R)-3-phenylisoxazolidine-2-yl)pyrimidine-4-yl)amino)phenyl) acrylamide] | GI50 [6]: < 0.05 µM; GI50 (PC9GR): 32 nM; GI50 [7]: < 0.05 µM; GI50 (PC9): 1 nM; GI50 [8]: > 15000 nM; GI50 [9]: < 0.05 µM; GI50 [10]: < 0.05 µM; GI50 (H1975): 60 nM
